Read-outs that look alike come from different tables or passages of the source. Non-standard residues stand in square brackets, D forms with d. Residues, ends and D or L forms follow the SMILES beside them. ξ: configuration not given here. *: point of attachment. Hydrocinnamoyl = O=C(CCc1ccccc1)*; ξF = NC(Cc1ccccc1)C(=O)O; Cbz = O=C(OCc1ccccc1)*

One assay has as its system RPCI.WM1. The assay can be described thus: MTS assay, RPCI.WM1. The class given is cell-based. For orientation: Formazan colour is commonly taken as a measure of viable cells.
Assay [1] deals with bortezomib resistant cells. The assay can be described thus: Cell viability (MTS/CellTiter Glo), bortezomib resistant multiple myeloma cells. In kind it is cell-based. The protocol:
(§1) Methods: CD138+ cells from multiple myeloma patients, bortezomib-sensitive multiple myeloma cell lines (OPM2, KMS11 and U266) and their isogenic bortezomib resistant subclones were used in experiments. Fluorogenic peptide substrates were used to measure β-subunit-specific enzymatic activity. Gene disruption was conducted using 2 different shRNA hairpins for PSMB5 (β5) and PSMB9 ([…]). […] HT12v4 gene expression array and NanoString mRNA quantification were used for gene expression profiling (GEP), followed by qPCR for confirmation. Novel dual β5-β1i proteasome inhibitors were synthesized and tested in vitro. Apoptosis was determined by annexin-V/[…] staining and MTS/CellTiter Glo assay used to determine cell viability.
A general note: Cellular ATP, detected with luciferase, serves as a proxy for viable cell number.

A further assay concerns BCWM.1/BR. The assay can be described thus: MTS assay, BCWM.1/BR. In kind it is cell-based. The conditions noted are these: BCWM1, bortezomib-resistant subclone.
In another assay the test system is β5. The assay can be described thus: Proteasome β5 enzyme activity in WM cell lines (fluorogenic substrate). The class given is cell-based. The conditions noted are these: comparator. As to the method:
(§2) Methodology: BWCM.1, MWCL-1 and RPCI-WM1 and isogenic PI-resistant subclones were used in experiments. WM cell viability determined by 72 hour CellTiter Glo assay. Proteasome enzyme activity was estimated by fluorogenic substrates specific for β5 and β1. Protein expression was determined by western blotting. Apoptosis was assessed by annexin-V/PI staining.
Results: Chemical compounds capable of inhibiting enzymatic activity of both β5 and β1 were prepared. […] (FIGS. 2B, 2C). […] In vitro proteasome enzyme activity at the β5 and β1 subunits was examined in all WM cell lines +/−Compound 1 (with bortezomib serving as a comparator).

The test system of a further assay is MWCL.1/BR. The experiment in a line: MTS assay, MWCL.1/BR. In kind it is cell-based. The conditions noted are these: bortezomib-resistant subclone.
The test system of the next assay is BCWM.1. The assay can be described thus: MTS assay, BCWM.1. The conditions noted are these: BCWM1. In kind it is cell-based.
The next assay addresses T1, β1 (Homo sapiens, UniProt P28065).
T1 construct: In vitro proteasome enzyme activity at the β5 and β1 subunits was examined in all WM cell lines +/−Compound 1; endogenous in cells; host or cells: BWCM.1 (BCWM.1), MWCL-1, RPCI-WM1 and isogenic bortezomib/PI-resistant subclones
The assay can be described thus: Proteasome β1 enzyme activity in WM cell lines (fluorogenic substrate). The class given is cell-based. The conditions noted are these: comparator. As to the method:
as §2

For the next assay, the system named is MWCL.1. The assay can be described thus: MTS assay, MWCL.1. The class given is cell-based.
The test system of the next assay is RPCI.WM1/BR. The experiment in a line: MTS assay, RPCI.WM1/BR. In kind it is cell-based. The conditions noted are these: bortezomib-resistant subclone.
Assay [2] concerns bortezomib sensitive cells. The assay can be described thus: Cell viability (MTS/CellTiter Glo), bortezomib sensitive multiple myeloma cells. In kind it is cell-based. The protocol: as §1
A further assay addresses T2, B1i (Homo sapiens, UniProt P28065).
T2 construct: endogenous in cells; host or cells: OPM2 and OPM2/BR multiple myeloma cell lines
The experiment in a line: In vitro enzymatic potency of dual-β5/β1i inhibitors (Table 2). The class given is biochemical. The protocol:
as §1
The results were shown for multiple myeloma cell lines (OPM2, OPM2/BR).

Consider `CC(C)C[C@H](NC(=O)[C@H](Cc1ccccc1)NC(=O)c1cnccn1)B(O)O` [Bortezomib, bortezomib], for which the IC50 in the assay with RPCI.WM1 turned out to be 3 nM; in assay [1] (bortezomib resistant cells, before PSMB9 downregulation, read-out: IC50 (shift from)), 235 nM; in assay [1] (bortezomib resistant cells, read-out: Bortezomib IC50), 284 nM; in assay [1] (bortezomib resistant-PSMB9 shRNA transfected cells, read-out: IC50 (shift to)) it was 108 nM; in the assay on BCWM.1/BR, 17.6 nM; in the assay on MWCL.1/BR, 16.7 nM. The IC50 in the assay with BCWM.1 was 8.6 nM; in the assay on MWCL.1, 10.2 nM; in the assay on RPCI.WM1/BR, 114 nM; in assay [2] it was 4 nM. Also, the “effect on β5 enzymatic function” value in the assay with β5 is listed as “only β5 enzymatic function”. Also, the “effect on β1 activity” value on β1 is listed as “did not decrease β1 activity”.
In the case of `CC(C)[C@H](NC(=O)CCc1ccccc1)C(=O)NC(C=O)Cc1ccccc1` (stereo partly shown) [Compound 1-2] (Hydrocinnamoyl-Val-[ξF]-aldehyde), the IC50 came to 1000 nM on B1i (first column of Table 2) and 5000 nM against B1i (second column of Table 2).
Consider `CC(C)C[C@H](NC(=O)OCc1ccccc1)C(=O)NC(C=O)Cc1ccccc1` (stereo partly drawn) [Compound 6-2] (Cbz-Leu-[ξF]-aldehyde), for which the IC50 against B1i (first column of Table 2) worked out at 1000 nM; against B1i (second column of Table 2) it was 5000 nM.
As to `O=CC(Cc1ccccc1)NC(=O)[C@H](Cc1ccccc1)NC(=O)OCc1ccccc1` (stereo partly drawn) [Compound 7-2] (Cbz-Phe-[ξF]-aldehyde), the IC50 against B1i (first column of Table 2) and at B1i (second column of Table 2) was 5000 nM each time.
Take `CC(C)[C@H](NC(=O)c1ccncc1)C(=O)NC(C=O)Cc1ccccc1` (stereo partly shown) [Compound 12-2]: the IC50 at B1i (first column of Table 2) and against B1i (second column of Table 2) was 5000 nM throughout.
Regarding `CCOC(=O)/C(C#N)=C/C(Cc1ccccc1)NC(=O)[C@@H](NC(=O)OCc1ccccc1)C(C)C` (stereo partly shown) [Compound 15-2], the IC50 against B1i (first column of Table 2) was > 10000 nM; on B1i (second column of Table 2) it was 5000 nM.

These data come from patent US20240092831A1, “Proteasome Inhibitors” (Mayo Foundation for Medical Education and Research, priority 2019, published 2024).
